Drawing on ChEMBL document CHEMBL6096641, “Discovery of the synergy between sulindac and NO expands the application of NSAIDs in cardiac complications” (Bioorg Med Chem, 2024), this text covers Activity and IC50 for nine compounds.

By IC50 is commonly meant the midpoint of a concentration-inhibition curve.

Active and inactive are the calls of the source. No cut-off for these calls is given here.

For data set [1], the system named is H9c2. The experiment in a line: Induction of NO release ratio in rat H9c2 cells under hypoxia condition by Griess reagent based microplate reader analysis relative to control. Format: functional. On the set-up: concentration or dose not given beside the values. Background: Nitrite, measured by Griess reagent, commonly stands in for NO production.
Data set [2] has as its target T1, Prostaglandin G/H synthase 2 (Homo sapiens, UniProt P35354).
T1 sequence (P35354 whole entry): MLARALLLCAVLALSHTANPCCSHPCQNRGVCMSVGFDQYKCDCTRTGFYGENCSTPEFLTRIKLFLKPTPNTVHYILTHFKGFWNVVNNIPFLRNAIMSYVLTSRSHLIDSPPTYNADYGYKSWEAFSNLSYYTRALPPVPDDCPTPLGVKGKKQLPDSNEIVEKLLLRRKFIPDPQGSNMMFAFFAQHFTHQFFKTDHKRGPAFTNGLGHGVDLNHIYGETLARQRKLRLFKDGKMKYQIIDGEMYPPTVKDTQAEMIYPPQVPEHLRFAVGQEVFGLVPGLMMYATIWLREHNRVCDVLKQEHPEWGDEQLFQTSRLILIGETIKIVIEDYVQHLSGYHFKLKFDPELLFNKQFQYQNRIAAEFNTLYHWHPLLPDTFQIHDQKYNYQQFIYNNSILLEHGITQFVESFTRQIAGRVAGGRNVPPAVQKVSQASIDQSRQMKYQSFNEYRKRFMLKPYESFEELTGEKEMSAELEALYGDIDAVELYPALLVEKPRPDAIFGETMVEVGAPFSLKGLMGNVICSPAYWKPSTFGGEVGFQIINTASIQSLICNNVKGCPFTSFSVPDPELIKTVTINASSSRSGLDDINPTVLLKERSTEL
In words: Inhibition of COX-2 (unknown origin).

The subject of data set [3] is H9c2. In words: Induction of NO release in rat H9c2 cells under hypoxia condition at 1 to 50 uM incubated for 4 hrs by Griess reagent based microplate reader analysis. Format: functional, cell-based. As to conditions: dose 1-50 µM.
Data set [4] is described as follows: Induction of H2S release by absorbance based analysis. Type of data set: functional.
The test system of data set [5] is H9c2. In words: Upregulation of VEFG protein expression level in rat H9c2 cells at 1 uM under hypoxia by Western blotting analysis. Type of data set: functional, cell-based. Background: A western blot detects proteins with antibodies after separation by electrophoresis.
For data set [6], the system named is H9c2. In words: Downregulation of ACE protein expression in rat H9c2 cells at 1 uM under hypoxia by Western blotting analysis. Format: functional, cell-based.
Data set [7] concerns H9c2. In words: Upregulation of HO-1 expression in rat H9c2 cells at 1 uM under hypoxia by Western blotting analysis. Type of data set: functional, cell-based.
A short description of data set [8]: Toxicity in male Wistar rat assessed as growth curve at 10 mg/kg administered once a day for 3 days and measured after 6 days. Format: organism-based. The note with it: in vivo, 72 h, time 3 day.
In data set [9] the test system is Rattus norvegicus. The experiment in a line: Cardioprotective activity against LPS and talc powder induced pericarditis male Wistar rat assessed as improvement in cardiac swelling at 10 mg/kg administered for 3 days. Format: functional, organism-based. As to conditions: time 3.0 day.
Data set [10] concerns Rattus norvegicus. The experiment in a line: Cardioprotective activity against LPS and talc powder induced pericarditis male Wistar rat assessed as improvement in pericardium thickening at 10 mg/kg administered for 3 days. Type of data set: functional, organism-based. As to conditions: time 3.0 day.

On to `COc1ccc2c(c1)c(CC(=O)Oc1ccc(N(C)N=O)cc1)c(C)n2C(=O)c1ccc(Cl)cc1`, for which the Activity in the data set with H9c2 [1] came out at 32.85%.
Consider `CC(C)Cc1ccc(C(C)C(=O)Oc2ccc(N(C)N=O)cc2)cc1` (configuration not stated), for which, in the data set with H9c2 [1], the Activity is recorded as 12.11%. In [2], this compound yielded an IC50 of 451 µM.
For the compound `CC(C(=O)Oc1ccc(N(C)N=O)cc1)c1cccc(Oc2ccccc2)c1` (configuration not stated), in the data set on H9c2 [1], the Activity amounted to 1.12%.
Still for that read-out and setting: the result for `CC(C(=O)Oc1ccc(N(C)N=O)cc1)c1cccc(C(=O)c2ccccc2)c1` (configuration not stated) reads 2.23%; that for `Cc1cccc(Nc2ccccc2C(=O)Oc2ccc(N(C)N=O)cc2)c1C`, 34.55%.
As to `CCc1cccc2c3c([nH]c12)C(CC)(CC(=O)Oc1ccc(N(C)N=O)cc1)OCC3` (configuration not stated), the Activity with H9c2 [1] was determined as 1.01%.
The same measure, in the same setting: to `CC1=C(CC(=O)Oc2ccc(N(C)N=O)cc2)c2cc(F)ccc2/C1=C\c1ccc([S+](C)[O-])cc1` (configuration not stated) belongs 32.56%; to `COc1ccc2cc(C(C)C(=O)Oc3ccc(N(C)N=O)cc3)ccc2c1` (single isomer, unassigned), 44.95%.
As for `CC1=C(CC(=O)O)c2cc(F)ccc2/C1=C\c1ccc([S+](C)[O-])cc1` (configuration not stated) [SULINDAC], the outcome in the data set on H9c2 [3] and with H9c2 [5] was inactive. Moreover, the Activity in data set [4] was 29.5 µg/L; in [8], “Non-toxic”. In addition, the result in the data set on H9c2 [6], in the data set with H9c2 [7], in the data set on Rattus norvegicus [9] and with Rattus norvegicus [10] was Active.
